We go through 13 substances from US11020482B2, “Methods and compositions related to inhibition of viral entry” (UNIVERSITY OF UTAH RESEARCH FOUNDATION, priority 2011, dated 2021).

The subject of assay [1] is HIV HXB2 strain pseudovirions. Put plainly: Pseudovirion viral infectivity (entry) assay, HXB2. In kind it is cell-based, HIV-1. The protocol:
(§1) This study included the use of the HIV HXB2 strain and the HIV JRFL strain. Viral infectivity was measured essentially as previously described (Hamburger 2005) with several modifications. 8 μg/mL DEAE-Dextran was used as a fusion enhancer in all assays. Media was changed 22-26 h following infection. […] Fits were weighted by the absolute s.e.m. from quadruplicate points with the minimum allowable error set to 1%.
(§2) Pseudovirion infectivity assays were carried out using HIV HXB2 strain and HIV JRFL strain luciferase reporter pseudovirions (NL4-3 strain) and HOS-CD4-CXCR4 (for HXB2) or HOS-CD4-CCR5 (for JRFL) target cells (Welch, 2007 and 2010). Inhibitors curves were generated using six concentration points measured in quadruplicate, and luciferase counts were normalized to an uninhibited control. Inhibition curves were fit using a standard IC50 equation (1-c/(IC50+c)) weighting each concentration point by its standard error in KaleidaGraph™ (Synergy Software). Reported IC50 values are the average of at least 2 independent assays.

The subject of assay [2] is HIV JRFL strain pseudovirions. Put plainly: Pseudovirion viral infectivity (entry) assay, JRFL. It is filed as cell-based, HIV-1. The protocol: as §1, §2
For the next assay, the system named is HIV-1 isolate IIIB. Put plainly: Replication competent virus, PBMC target cells. In kind it is cell-based. Particulars: envelope subtype B.
Another assay deals with HIV-1 isolate Ba-L. Kind of assay: Replication competent virus, PBMC target cells. It is filed as cell-based. Conditions: envelope subtype B.
For another assay, the system named is HIV-1 isolate JR-CSF. Put plainly: Replication competent virus, PBMC target cells. In kind it is cell-based. Particulars: envelope subtype B.
Another assay relates to HIV-1 isolate JR-FL. Put plainly: Replication competent virus, PBMC target cells. It is filed as cell-based. Conditions: envelope subtype B.
Another assay relates to HIV-1 isolate 92UG029. Put plainly: Replication competent virus, PBMC target cells. It is filed as cell-based. Conditions: isolate 92UG029, envelope subtype A.
For a further assay, the system named is HIV-1 isolate 92UG037. Put plainly: Replication competent virus, PBMC target cells. In kind it is cell-based. Particulars: isolate 92UG037, envelope subtype A.
A further assay deals with HIV-1 isolate 93IN101. Put plainly: Replication competent virus, PBMC target cells. In kind it is cell-based. Particulars: isolate 93IN101, envelope subtype C.
The next assay has as its system HIV-1 isolate 92BR025. Put plainly: Replication competent virus, PBMC target cells. It is filed as cell-based. Particulars: isolate 92BR025, envelope subtype C.
A further assay relates to HIV-1 isolate 92UG001. Put plainly: Replication competent virus, PBMC target cells. In kind it is cell-based. Conditions: isolate 92UG001, envelope subtype D.
A further assay concerns HIV-1 isolate 92UG046. Kind of assay: Replication competent virus, PBMC target cells. Particulars: isolate 92UG046, envelope subtype D. It is filed as cell-based.
The subject of the next assay is HIV-1 isolate CMU02. Put plainly: Replication competent virus, PBMC target cells. In kind it is cell-based. Conditions: isolate CMU02, envelope subtype AE.
Another assay has as its system HIV-1 isolate 93TH073. Kind of assay: Replication competent virus, PBMC target cells. It is filed as cell-based. Particulars: isolate 93TH073, envelope subtype E.
In a further assay the test system is HIV-1 isolate CMU06. Put plainly: Replication competent virus, PBMC target cells. In kind it is cell-based. Conditions: isolate CMU06, envelope subtype E.
The test system of the next assay is HIV-1 isolate 93BR019. Put plainly: Replication competent virus, PBMC target cells. It is filed as cell-based. Conditions: isolate 93BR019, envelope subtype BF.
Another assay relates to HIV-1 isolate 93BR020. Put plainly: Replication competent virus, PBMC target cells. Particulars: isolate 93BR020, envelope subtype F. It is filed as cell-based.
The subject of another assay is HIV-1 isolate 93BR029. Kind of assay: Replication competent virus, PBMC target cells. In kind it is cell-based. Particulars: isolate 93BR029, envelope subtype F.
Another assay relates to HIV-1 isolate G3. Kind of assay: Replication competent virus, PBMC target cells. It is filed as cell-based. Conditions: isolate G3, envelope subtype G.
In another assay the test system is HIV-1 isolate RU570. Kind of assay: Replication competent virus, PBMC target cells. In kind it is cell-based. Particulars: isolate RU570, envelope subtype G.
Assay [3] has as its system replication competent HIV strains that cover envelope subtypes A, B, C, D, E, F, and G. Kind of assay: Inhibitory breadth against replication competent virus panel. In kind it is cell-based, HIV-1.
Another assay has as its system HIV. Kind of assay: Infectivity assay. It is filed as cell-based.
In the next assay the test system is E560K/V570I HXB2. Kind of assay: Pseudovirion entry assay, resistant strain E560K/V570I. It is filed as cell-based, HIV-1. Particulars: Table 4; resistance mutation discovered against PIE7-dimer. The protocol: as §2
The test system of a further assay is Q577R HXB2. Kind of assay: Pseudovirion entry assay, resistant strain Q577R. Conditions: Table 4; resistance mutation discovered against PIE12-trimer. In kind it is cell-based, HIV-1. The protocol:
as §2

In assay [4] the test system is HIV HXB2 strain pseudovirions. Conditions: Table 5; value marked * (from 20); cited from earlier work.
Assay [5] deals with HIV JRFL strain pseudovirions. Conditions: Table 5; value marked * (from 20); cited from earlier work.
[6] abbreviates: Table 4, cholesterol potency-enhancing cargo.

Read-outs that look alike come from different tables or passages of the source.

Consider GACDYPEWQWLCAAGKK [PIE7-GKK], for which the IC50 (in general, the concentration that inhibits the measured activity by half) in assay [1] (Table 2, pseudovirion entry) was found to be 380 nM; in assay [2] (Table 2, pseudovirion entry), 19100 nM.

Regarding GACDYPEWQWLCAAGK [PIE7-GK], the IC50 came to 390 nM in assay [1] (Table 2, pseudovirion entry) and 15800 nM in assay [2] (Table 2, pseudovirion entry).

For KGACDYPEWQWLCAA [PIE7], the concentration for half-maximal inhibition (IC50) in assay [1] (Table 2, pseudovirion entry) was 620 nM; in [2] (Table 2, pseudovirion entry), 24000 nM.

As to KKGACESPEWRWLCAA [2K-PIE1], in assay [2] (Table 2, pseudovirion entry), the half-maximal inhibitory concentration (IC50) is above 100000 nM.

Regarding KGACDYPEWQWLCAAGK [K-PIE7-GK], the IC50 in assay [2] (Table 2, pseudovirion entry) turned out to be 14800 nM.

Turning to enfuvirtide [FUZEON ®], the IC50 in [1] (Table 2, pseudovirion entry) came to 3.7 nM; in assay [2] (Table 2, pseudovirion entry), 5 nM; in the assay on HIV-1 isolate IIIB, 28.3 nM; in the assay with HIV-1 isolate Ba-L, 19.7 nM; with HIV-1 isolate JR-CSF, 7.03 nM; in the assay on HIV-1 isolate JR-FL it was 1.65 nM. The IC50 turned out to be 191 nM in the assay on HIV-1 isolate 92UG029; 41.5 nM in the assay on HIV-1 isolate 92UG037; 22.4 nM in the assay on HIV-1 isolate 93IN101; 305 nM with HIV-1 isolate 92BR025; 182 nM in the assay with HIV-1 isolate 92UG001; 130 nM in the assay on HIV-1 isolate 92UG046. Also, the concentration for half-maximal inhibition (IC50) was 43.8 nM with HIV-1 isolate CMU02; 198 nM with HIV-1 isolate 93TH073; 5.65 nM with HIV-1 isolate CMU06; above 1000 nM in the assay on HIV-1 isolate 93BR019; 58.5 nM in the assay on HIV-1 isolate 93BR020; 18.6 nM in the assay with HIV-1 isolate 93BR029. Also, the IC50 in the assay on HIV-1 isolate G3 was 23.3 nM; with HIV-1 isolate RU570, 37 nM. Besides, the “fold less inhibition than PIE12-trimer” value in [3] (HIV subtype A viruses) was above 100 fold; in assay [3] (subtype C viruses) it was around 60 fold.

For KKGACELLGWEWAWLCAA [D10-p5], in assay [2] (Table 2, pseudovirion entry), the IC50 is above 25000 nM. In addition, the “inhibit infection of cells” value with HIV is “inhibit infection of cells”.

Turning to HPCDYPEWQWLCRLGK [PIE14], the IC50 turned out to be 33 nM in [1] (Table 2, pseudovirion entry) and 1050 nM in assay [2] (Table 2, pseudovirion entry).

Take HACDYPEWQWLCELGK [PIE15]: the IC50 in assay [1] (Table 2, pseudovirion entry) was 67 nM; in assay [2] (Table 2, pseudovirion entry), 1450 nM.

KGACDYKEWQWLCAA [PIE8]: in [2] (Table 2, pseudovirion entry), the half-maximal inhibitory concentration (IC50) is around 110000 nM.

On to KGACDYPEWRWLCAA [PIE2], for which the IC50 in assay [2] (Table 2, pseudovirion entry) is 66000 nM.

For the substance HPCDYPEWQWLCELGK [PIE12], the concentration for half-maximal inhibition (IC50) in [1] (Table 2, pseudovirion entry) amounted to 37 nM; in assay [1] (setting [6]), 37 nM; in [2] (Table 2, pseudovirion entry), 578 nM; in assay [2] (setting [6]), 580 nM; in the assay on E560K/V570I HXB2 it was 240 nM; in the assay on Q577R HXB2, 10200 nM. In addition, the IC50 is 37 ± 2.3 nM in assay [4] and 580 ± 21.4 nM in assay [5].

Take HPCDYPEWQWLCKLGK [PIE13]: the 50% inhibitory concentration (IC50) in [1] (Table 2, pseudovirion entry) turned out to be 41 nM; in assay [2] (Table 2, pseudovirion entry), 1470 nM.
